Counter-ions that a name gives are not always drawn.
Experiments:
peptic ulcer = conditions: previous finding; cited from earlier work
[1] = tested on: aspirin-induced ulcers in the rat; assay: Aspirin induced gastric ulcers in the rat; type: in vivo; conditions: 200 mg/kg of drug
Experimental: The anitulcer activity of these derivatives was evaluated on ulcers induced by the administration of ethanol, hydrochloric acid and sodium hydroxide in the rat, also on gastric ulcers induced by aspirin in the rat, and on their influence on gastric secretions in the rat.
(4) Aspirin induced gastric ulcers in the rat:
For carrying out this test, the method described by H. A. Carmichael, L. M. Nelson, R. I. Russel in Gastroenterology 74, 1229 (1978) is used, the disclosure of which is incorporated herein by reference.

[2] = tested on: gastric depletion in the rat; assay: Gastric depletion in the rat; type: in vivo
Experimental: Gastric depletion in the rat.
Rats of both sexes and mean weight of 180-200 g are used. The animals are subjected to fasting for 24 hours but have free access to water up to 3 hours prior to the test.
Preparation of phenyl red solution: 50 mg of phenyl red is mixed with 100 ml of a 1.5% methyl cellulose solution and shaken for 5 hours.
1.5 ml per rat is administered irrespective of weight.
The rats are sacrificed by cervix translocation: the stomach is taken out after ligaturing the cardias and pilorus.
The entire stomach and contents are placed in the container of a homogenizer with 50 ml of 0.1N NaOH. They are homogenized for 2 minutes at a maximum velocity. They homogenate is transferred to a test-tube and left to settle for one hour.
5 ml of the supernatant is taken out and put into a centrifuge tube and mixed with 0.5 ml of 20% (w/v) trichloroacetic acid. The tube is centrifuged at 2500 rpm for 20 min. The entire supernatant is taken and mixed with 4 ml of 0.4N NaOH, and its absorbance is measured at 560λ.
Gastric depletion is calculated according to the following formula:
(1-sample absorbance/standard absorbance)×100
As "standard absorbance" is considered the mean value of spectophotometric measurement of 4 animals sacrificed immediately after administering phenyl red.

CCCCCCC1CCC(O)C1CCCCCCC(=O)O (centres unmarked) [Rosaprostol, 9-hydroxy-91,20-bis-nor-prostanoic acid sodium salt]
antiulcer properties of the natural prostaglandins / other prostaglandin properties (peptic ulcer): maintaining the antiulcer properties of the natural prostaglandins, completely loses the others

CCCCCCC1CCC(N)C1CCCCCCC(=O)O (centres unmarked) [drawing 26]
Percent inhibition of aspirin-induced ulcers in the rat [1]: 72%

CCCCCCC1CCC(NC)C1CCCCCCC(=O)O (centres unmarked) [drawing 27]
Percent inhibition of aspirin-induced ulcers in the rat [1]: 87%

CCCCCCC1CCC(N(C)C)C1CCCCCCC(=O)O (centres unmarked) [drawing 28]
Percent inhibition of aspirin-induced ulcers in the rat [1]: 88%

CCCCCCC1CCC(NC(C)C)C1CCCCCCC(=O)O (centres unmarked) [drawing 29]
Percent inhibition of aspirin-induced ulcers in the rat [1]: 63%

CCCCCCC1CCC(NC(C)=O)C1CCCCCCC(=O)O (centres unmarked) [drawing 30]
Percent inhibition of aspirin-induced ulcers in the rat [1]: 58%

CCCCCCC1CCC(O)C1CCCCCCC(=O)O (centres unmarked) [drawing 31]
Percent inhibition of aspirin-induced ulcers in the rat [1]: 64%

CCCCCCC1CCC(N)C1CCCCCCC(=O)O (centres unmarked) [drawing 38]
inhibition values of gastric depletion ([2]; 25 mg/kg): 18% | inhibition values of gastric depletion ([2]; 50 mg/kg): 80% | inhibition values of gastric depletion ([2]; 100 mg/kg): 80%

CCCCCCC1CCC(NC)C1CCCCCCC(=O)O (centres unmarked) [drawing 39]
inhibition values of gastric depletion ([2]; 50 mg/kg): 33%

CCCCCCC1CCC(N(C)C)C1CCCCCCC(=O)O (centres unmarked) [drawing 40]
inhibition values of gastric depletion ([2]; 50 mg/kg): 55%

CCCCCCC1CCC(NC(C)C)C1CCCCCCC(=O)O (centres unmarked) [drawing 41]
inhibition values of gastric depletion ([2]; 50 mg/kg): 14%

CCCCCCC1CCC(NC(C)=O)C1CCCCCCC(=O)O (centres unmarked) [drawing 42]
inhibition values of gastric depletion ([2]; 50 mg/kg): 78%

Reference: patent publication US4816472A, “Derivatives of 19,20-Bis-nor-prostanoic acid with antiulcer and anorectic activity, process for their preparation and pharmaceutical compositions thereof” (Istituto Biochemico Italiano Giovanni Lorenzini S.p.A., priority 1985, dated 1989)
